Laboratory results reported in ChEMBL document CHEMBL1201862, “PubChem BioAssay data set” (2004).
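Exposure lasted 48 hours, with cells grown in 96-well plates and compounds tested at five concentrations. At the GI50, growth is halved.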 Calls of active or inactive are those of the source. No stated cut-off is given here; in the data, active = GI50 up to about 1.1 µM and inactive = higher.

Columns and labels:
Assay in all cases: inhibition of tumour cell growth, NCI panel, 48 h
[1] = system: SK-OV-3
[2] = system: TK-10
[3] = system: A549
[4] = system: MDA-MB-231
[5] = system: NCI/ADR-RES
[6] = system: OVCAR-3
[7] = system: SF-295
[8] = system: U-251
[9] = system: NCI-H460
[10] = system: EKVX
[11] = system: DU-145
[12] = system: CAKI-1
[13] = system: SK-MEL-28
[14] = system: COLO 205
[15] = system: UACC-62
[16] = system: A498
[17] = system: NCI-H522
[18] = system: MCF7
[19] = system: SF-268
[20] = system: PC-3
[21] = system: HCT-15
[22] = system: MDA-MB-435
[23] = system: SNB-19
[24] = system: OVCAR-4
[25] = system: HT-29
[26] = system: UO-31
[27] = system: K562
[28] = system: ACHN
[29] = system: SNB-75
[30] = system: SN12C
[31] = system: OVCAR-8
[32] = system: LOX IMVI
[33] = system: SF-539
[34] = system: KM12
[35] = system: BT-549
[36] = system: SR
[37] = system: SK-MEL-5
[38] = system: MOLT-4
[39] = system: 786-0
[40] = system: Hs-578T
[41] = system: HL-60
[42] = system: NCI-H23
[43] = system: RPMI-8226
[44] = system: SW-620
[45] = system: CCRF-CEM
[46] = system: HOP-92
[47] = system: T47D
[48] = system: IGROV-1
[49] = system: MDA-N
[50] = system: UACC-257
[51] = system: HCT-116
[52] = system: RXF 393
[53] = system: M14
[54] = system: OVCAR-5
[55] = system: HCC 2998
[56] = system: NCI-H226
[57] = system: HOP-62
[58] = system: Malme-3M
[59] = system: SK-MEL-2

C=C(C)CNCC(=C)C.Oc1c(Cl)c(Cl)c(Cl)c(Cl)c1Cl
GI50 [1]: 43.4 µM (inactive) | GI50 [2]: > 100 µM (inactive) | GI50 [3]: 27.9 µM (inactive) | GI50 [4]: 15.5 µM (inactive) | GI50 [5]: 23.8 µM (inactive) | GI50 [6]: 11 µM (inactive) | GI50 [7]: 16.5 µM (inactive) | GI50 [8]: 17.9 µM (inactive) | GI50 [9]: > 100 µM (inactive) | GI50 [10]: 17.9 µM (inactive) | GI50 [11]: 15.2 µM (inactive) | GI50 [12]: 21.4 µM (inactive) | GI50 [13]: 28.2 µM (inactive) | GI50 [14]: 22.7 µM (inactive) | GI50 [15]: 18.7 µM (inactive) | GI50 [16]: 20.4 µM (inactive) | GI50 [17]: 22 µM (inactive) | GI50 [18]: 26.6 µM (inactive) | GI50 [19]: 33.9 µM (inactive) | GI50 [20]: 22.8 µM (inactive) | GI50 [21]: 20.9 µM | GI50 [22]: 23.7 µM (inactive) | GI50 [23]: 32.1 µM (inactive) | GI50 [24]: 23.5 µM (inactive) | GI50 [25]: 20.1 µM (inactive) | GI50 [26]: 15.7 µM (inactive) | GI50 [27]: 32.4 µM (inactive) | GI50 [28]: 21.6 µM (inactive) | GI50 [29]: 16.6 µM (inactive) | GI50 [30]: 20.2 µM (inactive) | GI50 [31]: 31.9 µM (inactive) | GI50 [32]: 22.3 µM (inactive) | GI50 [33]: 17.6 µM (inactive) | GI50 [34]: 20.4 µM (inactive) | GI50 [35]: 25.4 µM (inactive) | GI50 [36]: 26.6 µM (inactive) | GI50 [37]: 16.4 µM (inactive) | GI50 [38]: 20.1 µM (inactive) | GI50 [39]: 19.4 µM (inactive) | GI50 [40]: 35.6 µM (inactive) | GI50 [41]: 3.15 µM (inactive) | GI50 [42]: 22.3 µM (inactive) | GI50 [43]: 20.8 µM (inactive) | GI50 [44]: 31.1 µM (inactive) | GI50 [45]: 26.4 µM (inactive) | GI50 [46]: 24.4 µM (inactive) | GI50 [47]: 18.2 µM (inactive) | GI50 [48]: 22.1 µM (inactive) | GI50 [49]: 18.7 µM (inactive) | GI50 [50]: > 100 µM (inactive) | GI50 [51]: 16.4 µM (inactive) | GI50 [52]: 20 µM (inactive) | GI50 [53]: 26.7 µM (inactive) | GI50 [54]: 17.1 µM (inactive) | GI50 [55]: > 100 µM (inactive) | GI50 [56]: 13.9 µM (inactive) | GI50 [57]: 22 µM (inactive) | GI50 [58]: 17.4 µM (inactive) | GI50 [59]: 17.7 µM (inactive)

C=CCn1c(-c2ccc(Cl)cc2Cl)cs/c1=N\c1c(C)n(C)n(-c2ccccc2)c1=O
GI50 [1]: 5.04 µM (inactive) | GI50 [2]: 12.3 µM (inactive) | GI50 [3]: 9.44 µM (inactive) | GI50 [4]: 13.8 µM (inactive) | GI50 [5]: 6.71 µM (inactive) | GI50 [6]: 10.7 µM (inactive) | GI50 [7]: 6.9 µM (inactive) | GI50 [8]: 12.5 µM (inactive) | GI50 [9]: 12.9 µM (inactive) | GI50 [10]: 3.54 µM (inactive) | GI50 [11]: 13.2 µM (inactive) | GI50 [12]: 14.4 µM (inactive) | GI50 [13]: 13 µM (inactive) | GI50 [14]: 12.3 µM (inactive) | GI50 [15]: 10.4 µM (inactive) | GI50 [16]: 12.4 µM (inactive) | GI50 [17]: 12.2 µM (inactive) | GI50 [18]: 9.14 µM (inactive) | GI50 [19]: 15.7 µM (inactive) | GI50 [20]: 5.53 µM (inactive) | GI50 [21]: 13.7 µM | GI50 [22]: 10.9 µM (inactive) | GI50 [23]: 11.1 µM (inactive) | GI50 [24]: 8.11 µM (inactive) | GI50 [25]: 10.1 µM (inactive) | GI50 [26]: 11.5 µM (inactive) | GI50 [27]: 2.51 µM (inactive) | GI50 [28]: 10 µM (inactive) | GI50 [29]: 8.47 µM (inactive) | GI50 [30]: 13.4 µM (inactive) | GI50 [31]: 5.81 µM (inactive) | GI50 [32]: 9.53 µM (inactive) | GI50 [33]: 14.8 µM (inactive) | GI50 [34]: 13.5 µM (inactive) | GI50 [35]: 12.9 µM (inactive) | GI50 [36]: 5.36 µM (inactive) | GI50 [37]: 3.04 µM (inactive) | GI50 [38]: 4.32 µM (inactive) | GI50 [39]: 13.1 µM (inactive) | GI50 [40]: 16.1 µM (inactive) | GI50 [41]: 6.11 µM (inactive) | GI50 [42]: 9.82 µM (inactive) | GI50 [43]: 7.19 µM (inactive) | GI50 [44]: 15.8 µM (inactive) | GI50 [45]: 6.92 µM (inactive) | GI50 [46]: 17.9 µM (inactive) | GI50 [47]: 3.12 µM (inactive) | GI50 [48]: 17 µM (inactive) | GI50 [49]: 8.55 µM (inactive) | GI50 [50]: 7.05 µM (inactive) | GI50 [51]: 7.24 µM (inactive) | GI50 [52]: 14.5 µM (inactive) | GI50 [53]: 11.3 µM (inactive) | GI50 [54]: 16.4 µM (inactive) | GI50 [55]: 15.3 µM (inactive) | GI50 [56]: 15.7 µM (inactive) | GI50 [57]: 15.2 µM (inactive) | GI50 [58]: 15.9 µM (inactive) | GI50 [59]: 14.7 µM (inactive)

Cc1cccc(C)c1NC(=O)Nc1ccc(S(N)(=O)=O)cc1
GI50 [1]: > 100 µM (inactive) | GI50 [2]: > 100 µM (inactive) | GI50 [3]: > 100 µM (inactive) | GI50 [4]: > 100 µM (inactive) | GI50 [5]: > 100 µM (inactive) | GI50 [6]: > 100 µM (inactive) | GI50 [7]: > 100 µM (inactive) | GI50 [8]: > 100 µM (inactive) | GI50 [9]: > 100 µM (inactive) | GI50 [10]: > 100 µM (inactive) | GI50 [11]: > 100 µM (inactive) | GI50 [12]: > 100 µM (inactive) | GI50 [13]: > 100 µM (inactive) | GI50 [14]: > 100 µM (inactive) | GI50 [15]: > 100 µM (inactive) | GI50 [16]: > 100 µM (inactive) | GI50 [17]: > 100 µM (inactive) | GI50 [18]: > 100 µM (inactive) | GI50 [19]: > 100 µM (inactive) | GI50 [20]: > 100 µM (inactive) | GI50 [21]: > 100 µM | GI50 [22]: > 100 µM (inactive) | GI50 [23]: > 100 µM (inactive) | GI50 [24]: > 100 µM (inactive) | GI50 [25]: > 100 µM (inactive) | GI50 [26]: > 100 µM (inactive) | GI50 [27]: > 100 µM (inactive) | GI50 [28]: > 100 µM (inactive) | GI50 [29]: > 100 µM (inactive) | GI50 [30]: > 100 µM (inactive) | GI50 [31]: > 100 µM (inactive) | GI50 [32]: > 100 µM (inactive) | GI50 [33]: > 100 µM (inactive) | GI50 [34]: > 100 µM (inactive) | GI50 [35]: > 100 µM (inactive) | GI50 [36]: > 100 µM (inactive) | GI50 [37]: > 100 µM (inactive) | GI50 [38]: > 100 µM (inactive) | GI50 [39]: > 100 µM (inactive) | GI50 [40]: > 100 µM (inactive) | GI50 [41]: > 100 µM (inactive) | GI50 [42]: > 100 µM (inactive) | GI50 [43]: > 100 µM (inactive) | GI50 [44]: > 100 µM (inactive) | GI50 [45]: > 100 µM (inactive) | GI50 [46]: > 100 µM (inactive) | GI50 [47]: > 100 µM (inactive) | GI50 [48]: > 100 µM (inactive) | GI50 [49]: > 100 µM (inactive) | GI50 [50]: > 100 µM (inactive) | GI50 [51]: > 100 µM (inactive) | GI50 [52]: > 100 µM (inactive) | GI50 [53]: > 100 µM (inactive) | GI50 [54]: > 100 µM (inactive) | GI50 [55]: > 100 µM (inactive) | GI50 [56]: > 100 µM (inactive) | GI50 [57]: > 100 µM (inactive) | GI50 [58]: > 100 µM (inactive) | GI50 [59]: > 100 µM (inactive)
